Test results from US9814703B2, “Methods for treating cancer by activation of BMP signaling” (The Board of Trustees of the Leland Stanford Junior …, priority 2013, dated 2017).

Key:
[1] = system: primary human bladder urothelial cells; experiment: Hh pathway stimulation of primary human bladder urothelial cells, gene expression by quantitative RT-PCR; assay type: cell-based; conditions: SAG 200 nM or ShhN, 24 hours
Source text: (§1) To determine whether Hh signaling regulates expression of BMP4 and BMP5 in human bladder, we first examined the expression of Hh pathway components in primary human bladder fibroblasts and epithelial cells. […] To evaluate response to the Hh signal, we treated cultured human bladder stromal and urothelial cells with ShhN protein or with the chemical pathway agonist SAG^24. […] Concomitant with the increase in GLI1 mRNA upon stimulation of the cultured human bladder stromal fibroblasts, we noted an increase in levels of BMP4 and BMP5 transcripts (FIG. 4B).
For BBN-induced bladder carcinogenesis, a 0.1% concentration of BBN was provided to mice ad libitum for 4-6 months. For Smo deletion experiments, a transgene expressing tamoxifen-activated Cre was used to selectively inactivate a conditional allele of Smo. […] Quantitative RT-PCR was used for measurement of RNA levels in samples isolated from the human and mouse bladder samples. […]
(§2) Bladder samples were snap frozen in liquid nitrogen, homogenized with a mortar and pestle, and RNA extracted with the RNeasy Plus Mini kit (Qiagen). For quantitative RT-PCR of mRNA transcripts, first-strand cDNA was made using the SuperScript III First-Strand Synthesis SuperMix (Invitrogen 18080-400). Quantitative RT-PCR was performed using iQ SYBR Green Supermix (Bio-Rad 170-8880) and the Bio-Rad iCycler. […]

[2] = system: primary human bladder stromal cells; experiment: Hh pathway stimulation of primary human bladder stromal cells, gene expression by quantitative RT-PCR; assay type: cell-based; conditions: 24 hours; for Expression of BMP4 increased as compared to the unstimulated control / Expression of BMP5 increased as compared to the unstimulated control / Expression of GLI1 increased as compared to the unstimulated control: serum-starved, SAG 200 nM or Shh conditioned medium (ShhN)
Source text: as §1
For BBN-induced bladder carcinogenesis, a 0.1% concentration of BBN was provided to mice ad libitum for 4-6 months. For Smo deletion experiments, a transgene expressing tamoxifen-activated Cre was used to selectively inactivate a conditional allele of Smo. To activate the BMP pathway, Alzet osmotic pumps were implanted subcutaneously to administer FK506 to mice exposed to BBN. Quantitative RT-PCR was used for measurement of RNA levels in samples isolated from the human and mouse bladder samples. For in vitro cultures, primary human bladder urothelial and stromal cells were treated with FK506 for 12 hours, or serum-starved and treated with SAG or Shh conditioned medium with or without cyclopamine for 24 hours prior to gene expression analyses.
Bladder samples were snap frozen in liquid nitrogen, homogenized with a mortar and pestle, and RNA extracted with the RNeasy Plus Mini kit (Qiagen). For quantitative RT-PCR of mRNA transcripts, first-strand cDNA was made using the SuperScript III First-Strand Synthesis SuperMix (Invitrogen 18080-400). Quantitative RT-PCR was performed using iQ SYBR Green Supermix (Bio-Rad 170-8880) and the Bio-Rad iCycler.
Primary human bladder urothelial cells (ScienCell 4320) and bladder stromal fibroblasts (ScienCell 4330) were cultured in Urothelial Cell Medium (ScienCell 4321) and Fibroblast Medium (ScienCell 2301) respectively to sub-confluency. Cells were then starved for 12 hours, followed by addition of Shh conditioned medium in the absence or in the presence of cyclopamine (3 uM, Toronto Research Chemicals), or treated with the Shh pathway agonist SAG (200 nM, Millipore) for 24 hours. In separate experiments, cells were treated with 20 ng/ml FK506 (Cayman Chemical) or DMSO for 12 hours. Following treatment, RNA was extracted using the Trizol reagent.

[3] = system: BBN-induced bladder cancer; experiment: BBN-induced bladder carcinogenesis in mice, progression to invasive carcinoma (histopathology); assay type: in vivo
Source text: To investigate the role of Bmp pathway activity in bladder tumor progression and to test the possibility that Bmp pathway activation might stimulate urothelial differentiation, which in turn might impede tumor progression, we exposed mice to BBN for 4 months, then initiated treatment with FK506 for another month while also continuing exposure to BBN (FIG. 5A). We have previously noted that mice exposed to BBN for 4 months develop pre-malignant lesions indistinguishable from human carcinoma-in-situ but not invasive carcinoma, which requires further BBN exposure^6.
For BBN-induced bladder carcinogenesis, a 0.1% concentration of BBN was provided to mice ad libitum for 4-6 months. For Smo deletion experiments, a transgene expressing tamoxifen-activated Cre was used to selectively inactivate a conditional allele of Smo. To activate the BMP pathway, Alzet osmotic pumps were implanted subcutaneously to administer FK506 to mice exposed to BBN. Quantitative RT-PCR was used for measurement of RNA levels in samples isolated from the human and mouse bladder samples. […]
A 0.1% concentration of BBN (TCI America) was dissolved in drinking water, and BBN-containing water was provided to mice ad libitum for 4-6 months in a dark bottle. […] Bladders were collected and analyzed after 4 to 6 months of BBN administration. […]

[4] = system: primary human bladder urothelial cells; experiment: BMP pathway activation in cultured urothelial cells, BMP target gene expression by quantitative RT-PCR; assay type: cell-based; conditions: 20 ng/ml FK506, 12 hours
Source text: As Bmp4 and Bmp5 secreted from stromal cells have the potential to act on urothelium, we tested the ability of cultured urothelial cells to respond to BMP pathway activation. For this purpose we selected FK506, an FDA-approved drug recently shown to activate BMP pathway at concentrations below those required for its immunosuppressant effects^27. […] Loss of Shh expression in human invasive carcinomas, as noted previously (FIG. 1A), would be expected to disrupt this signal feedback; this expectation was confirmed by a dramatic reduction of BMP4 and BMP5 expression in human invasive urothelial carcinoma as compared to benign bladder (FIG. 4D).
For BBN-induced bladder carcinogenesis, a 0.1% concentration of BBN was provided to mice ad libitum for 4-6 months. […] Quantitative RT-PCR was used for measurement of RNA levels in samples isolated from the human and mouse bladder samples. […]
as §2

[5] = cyclopamine 3 uM added to Hh pathway stimulation

Compound	Response of urothelial cells to Hh pathway stimulation (GLI1 expression) [1]	Expression of BMP4 increased as compared to the unstimulated control [2] [fold]	Expression of BMP5 increased as compared to the unstimulated control [2] [fold]	Expression of GLI1 increased as compared to the unstimulated control [2] [fold]	Effect of added cyclopamine on the stimulated increase of BMP4 and BMP5 expression [2, 5]	Effect of added cyclopamine on the stimulated increase of GLI1 expression [2, 5]	Progression of bladder cancer in mice ([3]; low-dose FK506, murine BBN model)	Development of invasive carcinoma in treated mice ([3]; mice exposed to BBN 5 months, FK506 0.05 mg/kg/day by subcutaneous osmotic pump during the final month, cohort of 10 mice (control 7 of 9 invasive))	Expression of BMP target gene CDKN1B increased as compared to the DMSO control [4] [fold]	Expression of BMP target gene ID4 increased as compared to the DMSO control [4] [fold]
ShhN: ShhN protein, Hh ligand, applied as Shh conditioned medium	did not respond	3.9	1.6	1.6						
CC1=C2C[C@H]3[C@@H](CC=C4C[C@@H](O)CC[C@@]43C)[C@@H]2CC[C@]12O[C@@H]1C[C@H](C)CN[C@H]1[C@H]2C [cyclopamine]					reversed	reversed				
CNC1CCC(N(Cc2cccc(-c3ccncc3)c2)C(=O)c2sc3ccccc3c2Cl)CC1 (centres unmarked) [SAG]	did not respond	5.8	2	5.4						
C=CC[C@@H]1/C=C(\C)C[C@H](C)C[C@H](OC)[C@H]2O[C@@](O)(C(=O)C(=O)N3CCCC[C@H]3C(=O)O[C@H](/C(C)=C/[C@@H]3CC[C@@H](O)[C@H](OC)C3)[C@H](C)[C@@H](O)CC1=O)[C@H](C)C[C@@H]2OC [FK506]							halts progression	no invasive carcinoma was observed	2.4	1.6
